This is an account of results in ChEMBL document CHEMBL4837181 (Eur J Med Chem, 2020).

The nature of data set [1]: Average plasma concentration at steady state in mouse at 62 mg/kg administered bid. The settings on record: in vivo. The class given is ADME, organism-based.
Data set [2] is described as follows: Cmax in human up to 1200 mg administered bid. The class given is ADME. More on the design: dose <=1200.
A short description of data set [3]: Dose normalized Cmax in rat at 50 mg/kg, po measured upto 72 hrs by LC-MS/MS analysis. The class given is ADME, organism-based. The settings on record: in vivo.
Data set [4] in a line: AUC (0 to 24 hrs) at steady state in […] at 1200 mg, BID. More on the design: time < 24 hr, dose 1200 mg. The class given is ADME. Conditions: in vivo; call rule not given here.
The nature of data set [5]: Tmax in female cynomolgus monkey at 225 mg/kg, po measured on day 1. The format is ADME, organism-based, Macaca fascicularis. Conditions: in vivo.
The nature of data set [6]: Half life in female cynomolgus monkey at 375 mg/kg, po BID measured on day 8. The format is ADME, organism-based, Macaca fascicularis. The settings on record: in vivo.
Data set [7] is described as follows: Half life in mouse at 20 to 900 mg/kg, po. Conditions: in vivo, dose 20-900 mg/kg. The format is ADME, organism-based.
Data set [8] can be described thus: Oral bioavailability in rat. The settings on record: in vivo. The class given is ADME, organism-based.
Data set [9] can be described thus: Half life in rat. The settings on record: in vivo. The format is ADME.
Data set [10] is described as follows: Clearance in female cynomolgus monkey at 15 mg/kg, iv measured on day 1. The format is ADME, organism-based, Macaca fascicularis. The settings on record: in vivo, time 1 day.
Data set [11] can be described thus: Chemical stability of compound in 0.1 N aqueous HCl buffer assessed as compound remaining at pH 1 at 5 uM measured after 24 hrs by LC-MS/MS analysis. The class given is physicochemical. The settings on record: pH 1, 24 h.
The nature of data set [12]: Chemical stability of compound in simulated intestinal fluid assessed as compound remaining at 5 uM measured after 24 hrs by LC-MS/MS analysis. The format is ADME, physicochemical. The settings on record: read-out: Stabilty.
Data set [13] can be described thus: Stability in mouse plasma assessed as parent compound remaining measured after 2 hrs by LC-MS/MS analysis. The class given is ADME, cell-free. Conditions: read-out: Stabilty.
Data set [14] in a line: Stability in rat plasma assessed as parent compound remaining measured after 2 hrs by LC-MS/MS analysis. The class given is ADME, cell-free. The settings on record: read-out: Stabilty.
A short description of data set [15]: Drug metabolism in Sprague-Dawley rat hepatocytes assessed as unmetabolized compound at 10 uM incubated for 120 mins by UPLC-QTOF-PDA analysis. The class given is ADME, cell-based, Hepatocyte. The settings on record: read-out: Drug metabolism.
A short description of data set [16]: Drug metabolism in human hepatocytes assessed as unmetabolized compound at 10 uM incubated for 120 mins by UPLC-QTOF-PDA analysis. Conditions: read-out: Drug metabolism. The format is ADME, cell-based, Hepatocyte.
The next data set concerns the target Cytochrome P450 3A4 (Homo sapiens, UniProt P08684). As to the kind of experiment: Direct inhibition of CYP3A4 in human hepatocytes. The format is ADME, cell-based, Hepatocyte.
A further data set has as its target Cytochrome P450 2D6 (Homo sapiens, UniProt P10635). As to the kind of experiment: Inhibition of CYP2D6 in human hepatocytes. The class given is ADME, cell-based, Hepatocyte.
The target in the next data set is Cytochrome P450 2C19 (Homo sapiens, UniProt P33261). As to the kind of experiment: Inhibition of CYP2C19 in human hepatocytes. The format is ADME, cell-based, Hepatocyte.
The target in a further data set is T1, Cytochrome P450 2B6 (Homo sapiens, UniProt P20813).
T1 sequence (P20813 whole entry): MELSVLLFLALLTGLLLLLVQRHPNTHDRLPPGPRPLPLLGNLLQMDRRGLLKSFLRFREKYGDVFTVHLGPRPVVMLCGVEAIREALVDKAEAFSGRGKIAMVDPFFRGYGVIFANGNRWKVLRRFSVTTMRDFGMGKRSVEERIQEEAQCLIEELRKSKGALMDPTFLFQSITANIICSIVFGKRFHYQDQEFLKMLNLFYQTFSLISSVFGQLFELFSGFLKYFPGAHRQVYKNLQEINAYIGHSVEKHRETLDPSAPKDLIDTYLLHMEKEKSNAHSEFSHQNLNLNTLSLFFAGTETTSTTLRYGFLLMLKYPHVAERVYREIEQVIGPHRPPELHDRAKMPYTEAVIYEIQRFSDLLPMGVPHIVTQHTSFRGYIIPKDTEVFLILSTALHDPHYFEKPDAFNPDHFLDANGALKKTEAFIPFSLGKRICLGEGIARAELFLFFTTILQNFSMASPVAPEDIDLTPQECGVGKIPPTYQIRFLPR
As to the kind of experiment: Induction of CYP2B6 in human hepatocytes. The class given is ADME, cell-based, Hepatocyte.

For data set [17], the target named is T2, Solute carrier organic anion transporter family member 1B3 (Homo sapiens, UniProt Q9NPD5).
T2 sequence (Q9NPD5 whole entry): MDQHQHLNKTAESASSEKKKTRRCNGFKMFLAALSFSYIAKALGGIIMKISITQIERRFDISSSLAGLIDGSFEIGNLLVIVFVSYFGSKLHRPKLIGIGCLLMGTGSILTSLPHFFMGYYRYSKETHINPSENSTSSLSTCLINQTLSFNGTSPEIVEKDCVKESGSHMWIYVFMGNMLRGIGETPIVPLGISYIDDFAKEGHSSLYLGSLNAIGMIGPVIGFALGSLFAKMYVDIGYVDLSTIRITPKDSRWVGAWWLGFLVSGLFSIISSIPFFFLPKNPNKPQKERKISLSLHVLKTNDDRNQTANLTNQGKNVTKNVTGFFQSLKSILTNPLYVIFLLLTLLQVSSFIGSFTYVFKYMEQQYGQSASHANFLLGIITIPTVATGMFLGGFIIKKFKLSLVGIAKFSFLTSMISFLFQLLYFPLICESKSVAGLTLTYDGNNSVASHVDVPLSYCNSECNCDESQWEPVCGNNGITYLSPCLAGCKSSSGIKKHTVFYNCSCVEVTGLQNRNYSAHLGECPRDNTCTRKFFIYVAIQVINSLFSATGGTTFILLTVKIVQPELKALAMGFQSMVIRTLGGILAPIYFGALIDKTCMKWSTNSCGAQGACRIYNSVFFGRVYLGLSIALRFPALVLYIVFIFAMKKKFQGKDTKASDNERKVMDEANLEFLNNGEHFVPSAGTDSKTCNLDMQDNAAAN
As to the kind of experiment: Inhibition of OATP1B3 (unknown origin) expressed in HEK293 cells. The class given is cell-based.

Data set [18] in a line: Tmax in female cynomolgus monkey at 150 mg/kg, po BID measured on day 8. The class given is ADME, organism-based, Macaca fascicularis. The settings on record: in vivo.
A short description of data set [19]: Half life in male cynomolgus monkey at 75 mg/kg, po BID measured on day 8. The format is ADME, organism-based, Macaca fascicularis. Conditions: in vivo.
Data set [20] in a line: Drug metabolism in cynomolgus monkey assessed as formation of M9 metabolite at 15 mg/kg, iv administered as single dose. The format is ADME, organism-based, Macaca fascicularis. Conditions: in vivo.
The nature of data set [21]: Drug metabolism in cynomolgus monkey assessed as formation of M9 metabolite at 75 to 675 mg/kg, po administered as single dose. The format is ADME, organism-based, Macaca fascicularis. The settings on record: in vivo, dose 75-675 mg/kg.
Data set [22] can be described thus: Drug metabolism in mouse assessed as formation of M9 metabolite at 20 to 900 mg/kg. The format is ADME, organism-based. The settings on record: in vivo, dose 20-900 mg/kg.
The nature of data set [23]: Drug metabolism in rats assessed as formation of M9 metabolite at 20 to 900 mg/kg. The settings on record: rat, in vivo; dose 20-900 mg/kg. The class given is ADME, organism-based.
Data set [24] can be described thus: Drug metabolism in rat assessed as indoximod formation by measuring indoximod Tmax at 20 to 900 mg/kg. The format is ADME, organism-based. Conditions: in vivo, dose 20-900 mg/kg.
A short description of data set [25]: Oral bioavailability in male cynomolgus monkey at 75 mg/kg. The class given is ADME, organism-based, Macaca fascicularis. The settings on record: in vivo.
Data set [26] in a line: Oral bioavailability in female cynomolgus monkey at 75 mg/kg. The class given is ADME, organism-based, Macaca fascicularis. The settings on record: in vivo.
A short description of data set [27]: Protein binding in cynomolgus monkey plasma. The class given is ADME, cell-free, Macaca fascicularis. Conditions: read-out: PPB.
Data set [28] can be described thus: Toxicity in rat assessed as mortality at 150 to 180 mg/kg, po. The class given is organism-based. Conditions: in vivo, dose 150-180 mg/kg.
Data set [29] is described as follows: Toxicity in monkey assessed as change in behavioral parameter. The settings on record: rhesus monkey, in vivo. More on the design: species or system Macaca mulatta.
The nature of data set [30]: Toxicity in monkey assessed as change in respiratory parameter. More on the design: species or system Macaca mulatta. Conditions: rhesus monkey, in vivo.

Cytochrome P450 2C19, sequence (P33261 whole entry): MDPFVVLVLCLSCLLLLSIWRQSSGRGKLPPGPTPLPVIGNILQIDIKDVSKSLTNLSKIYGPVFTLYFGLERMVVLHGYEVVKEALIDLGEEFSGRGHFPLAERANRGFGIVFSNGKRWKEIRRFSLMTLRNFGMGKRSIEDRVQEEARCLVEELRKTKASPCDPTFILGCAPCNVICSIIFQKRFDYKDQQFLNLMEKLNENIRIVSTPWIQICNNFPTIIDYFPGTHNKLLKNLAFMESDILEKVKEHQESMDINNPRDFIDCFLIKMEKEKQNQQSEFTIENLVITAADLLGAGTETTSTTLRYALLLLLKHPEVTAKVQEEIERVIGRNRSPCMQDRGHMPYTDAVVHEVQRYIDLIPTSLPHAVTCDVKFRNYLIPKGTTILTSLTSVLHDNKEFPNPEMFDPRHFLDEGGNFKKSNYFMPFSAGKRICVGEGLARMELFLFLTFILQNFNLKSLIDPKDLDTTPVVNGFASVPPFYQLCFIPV
Cytochrome P450 2D6, sequence (P10635 whole entry): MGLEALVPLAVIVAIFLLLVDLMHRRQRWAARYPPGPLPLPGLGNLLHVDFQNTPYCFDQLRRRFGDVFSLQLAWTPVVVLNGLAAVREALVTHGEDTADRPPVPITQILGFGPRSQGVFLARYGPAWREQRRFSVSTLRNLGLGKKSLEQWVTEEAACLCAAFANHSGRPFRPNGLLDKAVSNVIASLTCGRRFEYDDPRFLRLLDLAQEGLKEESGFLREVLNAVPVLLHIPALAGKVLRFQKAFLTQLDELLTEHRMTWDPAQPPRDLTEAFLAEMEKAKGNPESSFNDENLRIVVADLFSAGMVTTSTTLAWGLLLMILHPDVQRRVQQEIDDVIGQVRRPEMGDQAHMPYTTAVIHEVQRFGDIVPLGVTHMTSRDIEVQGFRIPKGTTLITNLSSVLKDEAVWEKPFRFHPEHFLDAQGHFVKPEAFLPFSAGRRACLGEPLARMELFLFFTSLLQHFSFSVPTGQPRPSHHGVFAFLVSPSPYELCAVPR
Cytochrome P450 3A4, sequence (P08684 whole entry): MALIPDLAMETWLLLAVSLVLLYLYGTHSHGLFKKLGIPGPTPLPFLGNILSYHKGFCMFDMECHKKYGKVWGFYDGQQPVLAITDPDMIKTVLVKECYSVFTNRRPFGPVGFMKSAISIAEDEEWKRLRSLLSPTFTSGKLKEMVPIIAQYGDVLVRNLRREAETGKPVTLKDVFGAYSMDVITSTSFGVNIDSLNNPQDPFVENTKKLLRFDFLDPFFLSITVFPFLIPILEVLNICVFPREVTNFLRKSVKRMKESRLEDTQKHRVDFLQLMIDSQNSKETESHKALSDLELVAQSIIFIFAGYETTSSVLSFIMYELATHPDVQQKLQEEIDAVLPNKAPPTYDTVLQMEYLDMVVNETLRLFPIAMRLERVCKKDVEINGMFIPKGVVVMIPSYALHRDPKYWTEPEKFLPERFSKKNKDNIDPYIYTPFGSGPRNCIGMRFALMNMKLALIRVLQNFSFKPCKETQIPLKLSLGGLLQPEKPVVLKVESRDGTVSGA

As to `Cn1cc(C[C@@H](N)C(=O)O)c2ccccc21` [INDOXIMOD], the Cave in [1] was > 7 µM. This molecule gave a Cmax in [2] of 13.7 µM. The Cmax/dose in data set [3] is 27 µM. The same molecule displayed an AUC at 24 h in [4] of 240 µM·h. In addition, the Tmax in data set [5] is 1 h. Moreover, the half-life in data set [6] was 3.8 h; in data set [7], 2.2 h; in [9] it was 30 h. Besides, the bioavailability in data set [8] stood at 50%. In data set [10], this molecule showed a clearance of 10.2 mL/min/kg.

Take `CCOC(=O)[C@@H](Cc1cn(C)c2ccccc12)NC(=O)[C@@H](N)CC(C)C.Cl`: the Stabilty in data set [11] was found to be 87%. Moreover, the remaining at 24 h, 5 µM in data set [12] is 30%. Also, the remaining at 2 h in [13] and in data set [14] was 0% in each case. The values for the remaining at 2 h, 10 µM in data set [15] and in data set [16] were 0.4% and 0.9%, respectively. Besides, the IC50 against Cytochrome P450 3A4 is 5 µM; at Cytochrome P450 2D6, 19 µM; against Cytochrome P450 2C19, 47 µM; in data set [17], > 50 µM. The Activity entry is “Not Active” on Cytochrome P450 2B6, “Toxic” in data set [28], “Non-Toxic” in [29] and “Non-Toxic” in [30]. The Tmax in [18] and in data set [24] was 1 h throughout. In addition, in data set [19], the half-life was 1.8 h. The Drug metabolism result in data set [20], in data set [21], in [22] and in [23] was “Metabolite_Detected” throughout. Further, the bioavailability in data set [25] came to 61.8%; in data set [26], 50.1%. Besides, in [27], the fraction unbound came out at 0.5.
